Laboratory results published in ChEMBL document CHEMBL4354807, “Natural Product Albiziabioside A Conjugated with Pyruvate Dehydrogenase Kinase Inhibitor Dichloroacetate To Induce Apoptosis-Ferroptosis-M2-TAMs Polarization for Combined Cancer Therapy” (J Med Chem, 2019).
Calls of active or inactive are those of the source. The calls are words filed in the database; no cut-off is given here.

Key:
MCF7 [1] = experiment: Induction of ferroptosis in human MCF7 cells assessed as cell death at 2 uM pretreated with antioxidant vitamin E followed by compound treatment by MTT assay; type: functional, cell-based
Mus musculus [2] = experiment: Modulation of tumor immunosuppressive activity in BALB/c mouse xenografted with mouse 4T1 cells assessed as increase in IFNgamma expression in serum administered intratumorally every other day for 14 days measured at 2 days post-last dose by ELISA; type: functional, organism-based
[3] = Toxicity in BALB/c nude mouse xenografted with human MCF7 cells assessed as effect on blood urea nitrogen at 2 mg/kg, iv administered every 2 days for 2 weeks measured after 14 days; type: organism-based; conditions: in vivo, 336 h
4T1 [4] = experiment: Reversal of immunosuppression against mouse 4T1 cells implanted in BALB/c mouse assessed as decrease in weight of distal tumor at 2 mg/kg administered intratumorally every 2 days for 2 weeks measured after 14 days; type: functional, organism-based
[5] = Stability of compound in PBS at pH 7.4 and 37 degree C measured after 2 hrs by HPLC analysis; type: physicochemical; conditions: buffer, pH 7.4, 2 h
[6] = Selectivity index, ratio IC50 for cytotoxicity against human LO2 cells assessed as reduction in cell viability after 72 hrs by MTT assay to IC50 for anticancer activity against human HCT116 cells assessed as reduction in cell viability after 72 hrs by MTT assay; type: toxicity, cell-based; conditions: LO2 cells versus HCT116 cells, read-out: Ratio IC50
MCF7 [7] = experiment: Induction of apoptosis in human MCF7 cells assessed as downregulation of Bcl2 expression at 2 uM after 48 hrs by Western blot analysis relative to control; type: functional
[8] = Stability of compound in plasma (unknown origin) 37 degree C measured after 2 hrs by HPLC analysis; type: ADME, cell-free
4T1 [9] = experiment: Inhibition of glycolysis in mouse 4T1 cells expressing PDK assessed as reduction in intracellular lactate level at 2 uM after 6 hrs by microplate reader assay; type: functional, cell-based
4T1 [10] = experiment: Reversal of immunosuppression against mouse 4T1 cells implanted in BALB/c mouse assessed as reduction in tumor volume at 2 mg/kg administered intratumorally every 2 days for 2 weeks measured after 14 days; type: functional
[11] = Selectivity index, ratio IC50 for cytotoxicity against human HBMEC cells assessed as reduction in cell viability after 72 hrs by MTT assay to IC50 for anticancer activity against human A375 cells assessed as reduction in cell viability after 72 hrs by MTT assay
[12] = Selectivity index, ratio IC50 for cytotoxicity against human HBMEC cells assessed as reduction in cell viability after 72 hrs by MTT assay to IC50 for anticancer activity against human MCF7 cells assessed as reduction in cell viability after 72 hrs by MTT assay
MCF7 [13] = experiment: (§1) Induction of metabolic reversal from aerobic glycolysis to oxidative phosphorylation in human MCF7 cells assessed as […] at 2 uM pretreated for 3 hrs followed by oligomycin A addition after 25 mins followed by subsequent addition of FCCP after 50 mins followed by antimycin/rotenone addition after 80 mins by seahorse XF24 extracellular flux analyzer assay; type: functional, cell-based
MCF7 [14] = experiment: Downregulation of PDK expression in human MCF7 cells after 48 hrs by Western blot analysis; type: functional, cell-based
[15] = Toxicity in BALB/c nude mouse xenografted with human MCF7 cells assessed as mouse death at 2 mg/kg, iv administered every 2 days for 2 weeks measured after 14 days; type: organism-based; conditions: in vivo, 336 h
4T1 [16] = experiment: Induction of M2-TAM polarization in mouse 4T1 cells assessed as decrease in Arg1 protein level at 2 uM after 48 hrs by Western blot analysis relative to control; type: functional
MCF7 [17] = experiment: Induction of ferroptosis in human MCF7 cells assessed as cell death at 2 uM pretreated with iron chelating agent deferoxamine followed by compound treatment by MTT assay; type: functional, cell-based
4T1 [18] = experiment: Reversal of immunosuppression against mouse 4T1 cells implanted in BALB/c mouse assessed as decrease in weight of primary tumor at 2 mg/kg administered intratumorally every 2 days for 2 weeks measured after 14 days; type: functional, organism-based
[19] = Toxicity in BALB/c nude mouse xenografted with human MCF7 cells assessed as effect on lung at 2 mg/kg, iv administered every 2 days for 2 weeks measured after 14 days by hematoxylin and eosin staining based histopathological analysis; type: organism-based; conditions: in vivo, 336 h
[20] = molecular target: [Pyruvate dehydrogenase (acetyl-transferring)] kinase isozyme 1, mitochondrial (Homo sapiens) (UniProt Q15118); experiment: Inhibition of PDK1 (unknown origin) expressed in human MCF7 cells using PDK tide as substrate measured after 90 mins in presence of ATP by ADP-Glo luminescent kinase assay
[21] = Selectivity index, ratio IC50 for cytotoxicity against human LO2 cells assessed as reduction in cell viability after 72 hrs by MTT assay to IC50 for anticancer activity against human A375 cells assessed as reduction in cell viability after 72 hrs by MTT assay; type: toxicity, cell-based; conditions: LO2 cells versus A375 cells, read-out: Ratio IC50
4T1 [22] = experiment: Anticancer activity against mouse 4T1 cells expressing PDK assessed as reduction in cell viability after 72 hrs by MTT assay; type: functional, cell-based; conditions: 4T1, 72 h
L02 [23] = experiment: Cytotoxicity against human LO2 cells assessed as reduction in cell viability after 72 hrs by MTT assay; type: cell-based; conditions: L02, 72 h
HCT-116 [24] = experiment: Synergistic anticancer activity against human HCT116 cells expressing assessed as combination index after 72 hrs by MTT assay; type: functional
[25] = Toxicity in BALB/c nude mouse xenografted with human MCF7 cells assessed as effect on kidney at 2 mg/kg, iv administered every 2 days for 2 weeks measured after 14 days by hematoxylin and eosin staining based histopathological analysis; type: organism-based; conditions: in vivo, 336 h
MCF7 [26] = experiment: Inhibition of glycolysis in human MCF7 cells assessed as reduction in extracellular lactate level at 2 uM after 6 hrs by microplate reader assay; type: functional, cell-based
L02 [27] = experiment: Cytotoxicity against human LO2 cells assessed as combination index after 72 hrs by MTT assay; type: cell-based; conditions: l02, 72 h
Mus musculus [28] = experiment: Modulation of tumor immunosuppressive activity in BALB/c mouse xenografted with mouse 4T1 cells assessed as increase in IL12 expression in serum administered intratumorally every other day for 14 days measured at 2 days post-last dose by ELISA; type: functional, organism-based
Mus musculus [29] = experiment: Modulation of tumor immunosuppressive activity in BALB/c mouse xenografted with mouse 4T1 cells assessed as increase in IFNgamma expression in tumor administered intratumorally every other day for 14 days measured at 2 days post-last dose by ELISA; type: functional, organism-based
Mus musculus [30] = experiment: Modulation of tumor immunosuppressive activity in BALB/c mouse xenografted with mouse 4T1 cells assessed as increase in TNFalpha expression in tumor administered intratumorally every other day for 14 days measured at 2 days post-last dose by ELISA; type: functional, organism-based
4T1 [31] = experiment: Reversal of immunosuppression against mouse 4T1 cells implanted in BALB/c mouse assessed as growth inhibition of primary tumor at 2 mg/kg administered intratumorally every 2 days for 2 weeks measured after 14 days; type: functional, organism-based
HCT-116 [32] = experiment: Anticancer activity against human HCT116 cells expressing PDK assessed as reduction in cell viability after 72 hrs by MTT assay; type: functional, cell-based; conditions: HCT-116, 72 h
MCF7 [33] = experiment: Downregulation of GPX4 expression in human MCF7 cells at 2 uM after 48 hrs by Western blot analysis; type: functional, cell-based
MCF7 [34] = experiment: Synergistic anticancer activity against human MCF7 cells overexpressing assessed as combination index after 72 hrs by MTT assay; type: functional
MCF7 [35] = experiment: as §1, with “6” for “3”; type: functional, cell-based

Compound: CC1(C)CC[C@]2(C(=O)O)CC[C@]3(C)C(=CC[C@@H]4[C@@]5(C)CC[C@H](O[C@@H]6O[C@H](CO[C@@H]7OC[C@H](O)[C@H](O)[C@H]7O)[C@@H](O)[C@H](O)[C@H]6NC(=O)C(Cl)Cl)C(C)(C)[C@@H]5CC[C@]43C)[C@@H]2C1
- Activity (MCF7 [1]): inactive
- Activity (Mus musculus [2]): Active
- Activity [3]: Non-Toxic
- Activity (4T1 [4]): Active
- Stability [5]: Stable
- selectivity ratio at 72 h [6]: 12.7
- fold change (FC) (MCF7 [7]): 0.5
- Stability [8]: Stable
- inhibition (4T1 [9]): Active
- Activity (4T1 [10]): <100 mm3
- Ratio IC50 [11]: 10.11
- Ratio IC50 [12]: 88.83
- Activity (MCF7 [13]): inactive
- Activity (MCF7 [14]): Dose-dependent effect
- Activity [15]: Non-Toxic
- fold change (FC) (4T1 [16]): 2.1
- Activity (MCF7 [17]): inactive
- Activity (4T1 [18]): Active
- Activity [19]: Non-Toxic
- inhibition [20]: Active
- selectivity ratio at 72 h [21]: 14.1
- IC50 (4T1 [22]): 1310 nM
- IC50 (L02 [23]): 53.1 µM
- CI (HCT-116 [24]): 0.22
- Activity [25]: Non-Toxic
- inhibition (MCF7 [26]): Active
- CI (L02 [27]): 2.13
- Activity (Mus musculus [28]): Active
- Activity (Mus musculus [29]): Active
- Activity (Mus musculus [30]): Active
- growth inhibition (GI) (4T1 [31]): Active
- IC50 (HCT-116 [32]): 3.87 µM
- Activity (MCF7 [33]): Active
- CI (MCF7 [34]): 0.03
- Activity (MCF7 [35]): Active
